Results on 24 compounds are retold here after patent US10934310B2, “Inhibitors of Bruton's tyrosine kinase and method of their use” (JANSSEN PHARMACEUTICA NV, priority 2015, dated 2021).

SMILES strings stand for the structures.

For the test, the target named is unphosphorylated-BTK kinase domain (UP-BTK), GST-tagged human BTK (389-659aa) (Homo sapiens (Human), UniProt Q06187). The experiment in a line: BTK Kinase Lanthascreen Binding Assay. Particulars: for BTK_I_binding pIC50: pIC50 = negative log of the IC50 in molar; for IC50: read-out: BTK_I_binding pIC50 (converted). The method, then:
BTK Kinase Lanthascreen Binding Assay:
A BTK kinase lanthascreen binding assay monitors compound binding to unphosphorylated-BTK kinase domain (UP-BTK), by competing with a fluorescent labeled tracer. […] Data were analyzed using Xlfit™ version 5.3 from ID Business Solutions (Guildford), Microsoft Excel add-in. pIC50 refers to the negative log of the IC50 in molar.
Background: In TR-FRET formats the signal depends on donor and acceptor labels being close together.

Setting [1] is: Lanthascreen binding, 60 minutes incubation.
The mark [2] stands for this setting: compound, 50 nM Tracer 236, 2 nM anti-GST antibody, 60 minutes.

Sequence of unphosphorylated-BTK kinase domain (UP-BTK), GST-tagged human BTK (389-659aa) (Q06187 389-659): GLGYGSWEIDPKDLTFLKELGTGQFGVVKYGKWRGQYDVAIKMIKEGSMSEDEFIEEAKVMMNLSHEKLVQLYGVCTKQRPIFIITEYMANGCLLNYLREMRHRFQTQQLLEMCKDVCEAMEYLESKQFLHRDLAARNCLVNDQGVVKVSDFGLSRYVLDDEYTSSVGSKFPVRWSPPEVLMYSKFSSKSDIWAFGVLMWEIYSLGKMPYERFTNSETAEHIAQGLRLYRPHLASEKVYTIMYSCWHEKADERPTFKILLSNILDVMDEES

On to `Cc1cc(Oc2ccccc2)ccc1N1C(=O)Nc2c(C(=O)N[C@H]3CCCC[C@H]3NC(=O)CN)sc3nccc1c23` (single isomer, unassigned) [Example 444, N-((1S,2R)-2-(2-Aminoacetamido)cyclohexyl)-5-(*S)-(2-methyl-4-phenoxyphenyl)-4-oxo-4,5-dihydro-3H-1-thia-3,5,8-triazaacenaphthylene-2-carboxamide], for which the “BTK_I_binding pIC50” value under setting [1] is on record as 6.73. On the same count and under the same terms, the same measure for `CC(=O)N[C@@H]1CCCC[C@H]1NC(=O)c1sc2nccc3c2c1NC(=O)N3c1ccc(Oc2ccccc2)cc1C` (single isomer, unassigned) [Example 445, N-((1R,2R)-2-Acetamidocyclohexyl)-5-(*S)-(2-methyl-4-phenoxyphenyl)-4-oxo-4,5-dihydro-3H-1-thia-3,5,8-triazaacenaphthylene-2-carboxamide]: 6.73.

In the case of `CC(=O)N[C@@H]1CCCC[C@@H]1NC(=O)c1sc2nccc3c2c1NC(=O)N3c1ccc(Oc2ccccc2)cc1C` (single isomer, unassigned) [Example 446, N-((1S,2R)-2-Acetamidocyclohexyl)-5-(*S)-(2-methyl-4-phenoxyphenyl)-4-oxo-4,5-dihydro-3H-1-thia-3,5,8-triazaacenaphthylene-2-carboxamide], the “BTK_I_binding pIC50” value under setting [1] is 6.72. Same read-out and setting: the value for `Cc1cc(Oc2ccccc2)ccc1N1C(=O)Nc2c(C(=O)N[C@@H]3CCCC[C@H]3NC(=O)CN(C)C)sc3nccc1c23` (single isomer, unassigned) [Example 447, N-((1R,2R)-2-(2-(Dimethylamino)acetamido)cyclohexyl)-5-(*S)-(2-methyl-4-phenoxyphenyl)-4-oxo-4,5-dihydro-3H-1-thia-3,5,8-triazaacenaphthylene-2-carboxamide] was 6.67; that for `CNCC(=O)N[C@@H]1CCCC[C@H]1NC(=O)c1sc2nccc3c2c1NC(=O)N3c1ccc(Oc2ccccc2)cc1C` (single isomer, unassigned) [Example 448, 5-(*S)-(2-Methyl-4-phenoxyphenyl)-N-((1R,2R)-2-(2-(methylamino)acetamido)cyclohexyl)-4-oxo-4,5-dihydro-3H-1-thia-3,5,8-triazaacenaphthylene-2-carboxamide] was 6.66; that for `Cc1cc(Oc2ccccc2)ccc1N1C(=O)Nc2c(C(=O)N[C@H]3CCCC[C@H]3NC(=O)CN(C)C)sc3nccc1c23` (single isomer, unassigned) [Example 449, N-((1S,2R)-2-(2-(Dimethylamino)acetamido)cyclohexyl)-5-(*S)-(2-methyl-4-phenoxyphenyl)-4-oxo-4,5-dihydro-3H-1-thia-3,5,8-triazaacenaphthylene-2-carboxamide] was 6.51. The same measure, in the same setting: the value for `Cc1cc(Oc2ccccc2)ccc1N1C(=O)Nc2c(C(=O)N[C@H]3CCCC[C@H]3N)sc3nccc1c23` (single isomer, unassigned) [Example 450, N-((1S,2R)-2-Aminocyclohexyl)-5-(*S)-(2-methyl-4-phenoxyphenyl)-4-oxo-4,5-dihydro-3H-1-thia-3,5,8-triazaacenaphthylene-2-carboxamide] was 6.47; that for `C=CC(=O)N[C@@H]1CCCC[C@@H]1NC(=O)c1sc2nccc3c2c1NC(=O)N3c1ccc(Oc2ccccc2)cc1C` (single isomer, unassigned) [Example 451] was 6.40. On the same count and under the same terms, the same measure for `Cc1cc(Oc2ccccc2)ccc1N1C(=O)Nc2c(C(=O)N[C@H]3CCC[C@H]3N)sc3nccc1c23` (single isomer, unassigned) [Example 452, N-((1S,2R)-2-Aminocyclopentyl)-5-(*S)-(2-methyl-4-phenoxyphenyl)-4-oxo-4,5-dihydro-3H-1-thia-3,5,8-triazaacenaphthylene-2-carboxamide]: 6.38.

Take `Cc1cc(CC(C)C)ncc1N1C(=O)Nc2c(C(=O)N[C@@H]3CCC[C@@H]3NC(=O)/C=C/CNC(=O)CCCC(=O)NCCCOCCOCCOCCCNC(=O)CCCC[C@@H]3SC[C@@H]4NC(=O)N[C@@H]43)sc3nccc1c23` (single isomer, unassigned) [Example 464]: the IC50 was 0.229 µM. For the compound `Cc1cc(CC(C)C)ncc1N1C(=O)Nc2c(C(=O)N[C@@H]3CCC[C@@H]3NC(=O)/C(C#N)=C/C3CC3)sc3nccc1c23` (single isomer, unassigned) [Example 466, N-((1R,2S)-2-((E)-2-Cyano-3-cyclopropylacrylamido)cyclopentyl)-5-(*S)-(6-isobutyl-4-methylpyridin-3-yl)-4-oxo-4,5-dihydro-3H-1-thia-3,5,8-triazaacenaphthylene-2-carboxamide], the “BTK_I_binding pIC50” value under setting [1] is on record as 7.63. Take `C=CC(=O)NC1CCC[C@@H](NC(=O)c2sc3nccc4c3c2NC(=O)N4c2ccc(Oc3ccccc3)cc2C)C1` (stereo in doubt) [Example 2, N-((1R,3S)-3-Acrylamidocyclohexyl)-5-(2-methyl-4-phenoxyphenyl)-4-oxo-4,5-dihydro-3H-1-thia-3,5,8-triazaacenaphthylene-2-carboxamide]: the “BTK_I_binding pIC50” value under setting [2] was determined as 7.36. Regarding `C=CC(=O)NC1CCC[C@H]1NC(=O)c1sc2nccc3c2c1NC(=O)N3c1ccnc(-c2ccccc2)c1` (stereo in doubt) [Example 197, N-((1R,2R)-2-Acrylamidocyclopentyl)-4-oxo-5-(2-phenylpyridin-4-yl)-4,5-dihydro-3H-1-thia-3,5,8-triazaacenaphthylene-2-carboxamide], the “BTK_I_binding pIC50” value under setting [2] is 7.48. With `C=CC(=O)N[C@H]1CC[C@@H](NC(=O)c2sc3nccc4c3c2NC(=O)N4c2ccc(Oc3ccccc3)cc2C)CC1` [Example 3, N-((1S,4S)-4-Acrylamidocyclohexyl)-5-(2-methyl-4-phenoxyphenyl)-4-oxo-4,5-dihydro-3H-1-thia-3,5,8-triazaacenaphthylene-2-carboxamide], under setting [2], the “BTK_I_binding pIC50” value stood at 7.42. Same read-out and setting: the same measure for `Cc1cc(Oc2ccccc2)ccc1N1C(=O)Nc2c(C(=O)N[C@@H]3CCC[C@@H]3O)sc3nccc1c23` [Example 6, N-((1R,2S)-2-Hydroxycyclopentyl)-5-(2-methyl-4-phenoxyphenyl)-4-oxo-4,5-dihydro-3H-1-thia-3,5,8-triazaacenaphthylene-2-carboxamide]: 7.48. Same read-out and setting: the same measure for `Cc1cc(Oc2ccccc2)ccc1N1C(=O)Nc2c(C(=O)N[C@@H]3CCC[C@H]3O)sc3nccc1c23` [Example 9, N-((1R,2R)-2-Hydroxycyclopentyl)-5-(2-methyl-4-phenoxyphenyl)-4-oxo-4,5-dihydro-3H-1-thia-3,5,8-triazaacenaphthylene-2-carboxamide]: 7.41; for `Cc1cc(Oc2ccccc2)ccc1N1C(=O)Nc2c(C(=O)N[C@@H]3CCCC[C@@H]3N)sc3nccc1c23` [Example 10, N-((1R,2S)-2-Aminocyclohexyl)-5-(2-methyl-4-phenoxyphenyl)-4-oxo-4,5-dihydro-3H-1-thia-3,5,8-triazaacenaphthylene-2-carboxamide]: 7.35. On the same count and under the same terms, the same measure for `CC(=O)N[C@@H]1CCC[C@H]1NC(=O)c1sc2nccc3c2c1NC(=O)N3c1ccc(Oc2ccccc2)cc1C` [Example 11, N-((1R,2R)-2-Acetamidocyclopentyl)-5-(2-methyl-4-phenoxyphenyl)-4-oxo-4,5-dihydro-3H-1-thia-3,5,8-triazaacenaphthylene-2-carboxamide]: 7.24. `Cc1cc(Oc2ccccc2)ccc1N1C(=O)Nc2c(C(=O)N[C@@H]3CCC[C@@H]3N)sc3nccc1c23` [Example 12, N-((1R,2S)-2-Aminocyclopentyl)-5-(2-methyl-4-phenoxyphenyl)-4-oxo-4,5-dihydro-3H-1-thia-3,5,8-triazaacenaphthylene-2-carboxamide]: under setting [2], the “BTK_I_binding pIC50” value is reported as 7.03. As to `C=CC(=O)N[C@H]1CC[C@H](NC(=O)c2sc3nccc4c3c2NC(=O)N4c2ccc(Oc3ccccc3)cc2C)CC1` [Example 13, N-((1R,4R)-4-Acrylamidocyclohexyl)-5-(2-methyl-4-phenoxyphenyl)-4-oxo-4,5-dihydro-3H-1-thia-3,5,8-triazaacenaphthylene-2-carboxamide], the “BTK_I_binding pIC50” value under setting [2] is on record as 6.94. For `Cc1cc(Oc2ccccc2)ccc1N1C(=O)Nc2c(C(=O)N[C@H]3CC[C@H](O)CC3)sc3nccc1c23` [Example 15, N-((1R,4R)-4-Hydroxycyclohexyl)-5-(2-methyl-4-phenoxyphenyl)-4-oxo-4,5-dihydro-3H-1-thia-3,5,8-triazaacenaphthylene-2-carboxamide], under setting [2], the “BTK_I_binding pIC50” value is recorded as 7.21. Still for that read-out and setting: the same measure for `Cc1cc(Oc2ccccc2)ccc1N1C(=O)Nc2c(C(=O)N[C@H]3CC[C@@H](O)CC3)sc3nccc1c23` [Example 16, N-((1S,4S)-4-Hydroxycyclohexyl)-5-(2-methyl-4-phenoxyphenyl)-4-oxo-4,5-dihydro-3H-1-thia-3,5,8-triazaacenaphthylene-2-carboxamide]: 7.14.

With `Cc1cc(Oc2ccccc2)ccc1N1C(=O)Nc2c(C(=O)N[C@@H]3CCC[C@@H]3N(C)C)sc3nccc1c23` [Example 17, N-((1R,2S)-2-(Dimethylamino)cyclopentyl)-5-(2-methyl-4-phenoxyphenyl)-4-oxo-4,5-dihydro-3H-1-thia-3,5,8-triazaacenaphthylene-2-carboxamide], the IC50 is 0.12 µM. Regarding `CO[C@H]1CC[C@H](NC(=O)c2sc3nccc4c3c2NC(=O)N4c2ccc(Oc3ccccc3)cc2C)CC1` [Example 18, N-((1R,4R)-4-Methoxycyclohexyl)-5-(2-methyl-4-phenoxyphenyl)-4-oxo-4,5-dihydro-3H-1-thia-3,5,8-triazaacenaphthylene-2-carboxamide], the “BTK_I_binding pIC50” value under setting [2] amounted to 6.99.
